Data from patent publication US20250376474A1, “RET-LDD PROTEIN DEGRADERS” (Bristol-Myers Squibb Company, priority 2022, published 2025).

Biological target: T1, CCDC6-RET fusion expressing papillary thyroid carcinoma (TPC-1) cell line (Homo sapiens, UniProt P07949)
T1 construct: RET protein abundance (and therefore degradation) directly corresponds to luminescence intensity; CCDC6 (fusion partner, N-terminal part); endogenous in cells; host or cells: TPC-1 (papillary thyroid carcinoma), parental; the other entry of the earlier key: CCDC6 (Q16204, Coiled-coil domain-containing protein 6)
T1 sequence (P07949 with tags, fused parts or gaps): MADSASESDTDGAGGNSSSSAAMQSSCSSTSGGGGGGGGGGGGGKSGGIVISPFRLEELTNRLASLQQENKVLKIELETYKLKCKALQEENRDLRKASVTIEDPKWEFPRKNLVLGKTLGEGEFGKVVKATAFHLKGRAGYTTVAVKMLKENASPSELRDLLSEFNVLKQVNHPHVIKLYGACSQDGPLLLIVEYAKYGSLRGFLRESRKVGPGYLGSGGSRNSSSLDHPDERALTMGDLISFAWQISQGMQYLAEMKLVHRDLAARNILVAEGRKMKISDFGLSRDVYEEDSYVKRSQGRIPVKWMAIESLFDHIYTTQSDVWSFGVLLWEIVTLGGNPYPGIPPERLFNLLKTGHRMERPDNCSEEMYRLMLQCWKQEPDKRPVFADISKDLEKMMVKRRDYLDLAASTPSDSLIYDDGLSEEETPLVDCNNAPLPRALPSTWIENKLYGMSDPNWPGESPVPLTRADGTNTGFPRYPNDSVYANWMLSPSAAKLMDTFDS
Test: Cellular RET degradation assay (AlphaLISA Surefire Ultra, tRET) in TPC-1/CCDC6-RET cells
Type: cell-based
Settings: TPC1, maximum % degradation (YMax) from 4-parameter logistic fit, parental TPC-1/CCDC6-RET cells, 24 hrs treatment, read-out: Cell Density TPC-1/CCDC6-RET YMax (%)
Description: Cellular RET degradation compound potency was determined using the bead-based luminescent amplification assay—AlphaLISA Surefire Ultra Detection Kit (Perkin-Elmer). The CCDC6-RET fusion expressing papillary thyroid carcinoma (TPC-1) cell line was selected for screening of potential degraders: Parental (TPC-1/CCDC6-RET). Cells were plated in 384 well culture plates (Greiner Bio-One) at 10,000 cells/well in 50ul/well DMEM (Fisher Scientific) with 2% FBS serum (Gibco). After cellular adhesion (4 hrs), cells were treated with compound by dispensing 25nl of serially diluted compound (1:3 dilution: 1 ipoint) directly into the cell culture wells using an Echo-655 acoustic liquid dispenser (Beckman). Low normalization wells were media only and high normalization wells were cells treated with DMSO only. Treated cell plates were placed in an incubator at 37C and 5% CO2 for 24 hrs. At 24 hrs, cell media was removed by a FELIX automated liquid hander (Analytik Jena) and 25ul of cell lysis buffer (provided in AlphaLisa kit) was added to each well. 5ul cell lysate were transferred into a 384-well microplate (Perkin Elmer) before addition of 2.5ul AlphaLISA Acceptor Bead mix. The plates were sealed and kept at room temperature for 1 hr before addition of donor bead mixture. Donor bead addition was performed in the dark and incubated for >1 hr before AlphaLISA luminescence was measured on an Envision plate reader with an Alphascreen aperture at RT (excitation 680 nm, emission 615 nm). RET protein abundance (and therefore degradation) directly corresponds to luminescence intensity.
Intensities were normalized relative to the average values from 16 wells containing media alone (blank-low) and 16 wells containing cells +DMSO (high). % Degradation for each well was determined using the standard equation, where
DC50 (IC50) values for each compound tested are calculated by analyzing plots of % degradation versus compound concentration, and fitting to the standard 4-parameter logistic curve where,
Top and bottom are the % degradation at infinitely large and infinitely small compound concentrations, respectively, while Halfmax is the compound concentration yielding % degradation corresponding tob½ Top-Bottom, and N is the Hill coefficient. DC50 values are calculated according to the relationship,
Compound replicates were performed in independent assays. Maximum degradation (YMax) was defined as the maximal % degradation value from the 4-parameter logistic equation, as previously described.
The half-maximal degradation concentration (DC50) and % degradation response (Ymax) are included in Table 3.

Row | SMILES | Dmax
1 | COCc1ccc(NC(=O)c2c(C#CC3CCN(C(=O)CCCCCCN4CCC(c5ccc6c(c5)C(=O)N(C5CCC(=O)NC5=O)C6)CC4)CC3)c(C(C)C)n3ncnc(N)c23)cc1 (stereo not shown) [Example 4, 4-amino-6-((1-(7-(4-(2-(2,6-dioxopiperidin-3-yl)-3-oxoisoindolin-5-yl)piperidin-1-yl)heptanoyl)piperidin-4-yl)ethynyl)-7-isopropyl-N-(4-(methoxymethyl)phenyl)pyrrolo[2,1-f][1,2,4]triazine-5-carboxamide] | 97.6%
2 | COCc1ccc(NC(=O)c2c(C#CC3CCN(C(=O)CCCCN4CCN(c5ccc6c(c5)C(=O)N(C5CCC(=O)NC5=O)C6)CC4)CC3)c(C(C)C)n3ncnc(N)c23)cc1 (stereo not shown) [Example 6, 4-amino-6-((1-(5-(4-(2-(2,6-dioxopiperidin-3-yl)-3-oxoisoindolin-5-yl)piperazin-1-yl)pentanoyl)piperidin-4-yl)ethynyl)-7-isopropyl-N-(4-(methoxymethyl)phenyl)pyrrolo[2,1-f][1,2,4]triazine-5-carboxamide] | 97.3%
3 | COCc1ccc(NC(=O)c2c(C#CC3CCN(C(=O)CCCCCCN4CCC(c5ccc6c(c5)CN(C5CCC(=O)NC5=O)C6=O)CC4)CC3)c(C(C)C)n3ncnc(N)c23)cc1 (stereo not shown) [Example 2, 4-amino-6-((1-(7-(4-(2-(2,6-dioxopiperidin-3-yl)-1-oxoisoindolin-5-yl)piperidin-1-yl)heptanoyl)piperidin-4-yl)ethynyl)-7-isopropyl-N-(4-(methoxymethyl)phenyl)pyrrolo[2,1-f][1,2,4]triazine-5-carboxamide] | 87.4%
4 | COCc1ccc(NC(=O)c2c(C#CC3CCN(C(=O)CCCCCCN4CCN(c5ccc6c(c5)CN(C5CCC(=O)NC5=O)C6=O)CC4)CC3)c(C(C)C)n3ncnc(N)c23)cc1 (stereo not shown) [Example 1] | 84.5%
5 | COCc1ccc(NC(=O)c2c(C#CC3CCN(C(=O)CCCCCCN4CCN(c5ccc6c(c5)C(=O)N(C5CCC(=O)NC5=O)C6)CC4)CC3)c(C(C)C)n3ncnc(N)c23)cc1 (stereo not shown) [Example 3, 4-amino-6-((1-(7-(4-(2-(2,6-dioxopiperidin-3-yl)-3-oxoisoindolin-5-yl)piperazin-1-yl)heptanoyl)piperidin-4-yl)ethynyl)-7-isopropyl-N-(4-(methoxymethyl)phenyl)pyrrolo[2,1-f][1,2,4]triazine-5-carboxamide] | 91.8%
6 | COCc1ccc(NC(=O)c2c(C#CC3CCN(C(=O)CCCCN4CCN(c5ccc6c(c5)CN(C5CCC(=O)NC5=O)C6=O)CC4)CC3)c(C(C)C)n3ncnc(N)c23)cc1 (stereo not shown) [Example 5, 4-amino-6-((1-(5-(4-(2-(2,6-dioxopiperidin-3-yl)-1-oxoisoindolin-5-yl)piperazin-1-yl)pentanoyl)piperidin-4-yl)ethynyl)-7-isopropyl-N-(4-(methoxymethyl)phenyl)pyrrolo[2,1-f][1,2,4]triazine-5-carboxamide] | 79.9%

Next, values leading:

Row | Dmax | SMILES
7 | 78.9% | COCc1ccc(NC(=O)c2c(C#CC3CCN(C(=O)CCN4CCC5(CC4)CCN(c4ccc6c(c4)CN(C4CCC(=O)NC4=O)C6=O)CC5)CC3)c(C(C)C)n3ncnc(N)c23)cc1 (stereo not shown) [Example 10, 4-amino-6-((1-(3-(9-(2-(2,6-dioxopiperidin-3-yl)-1-oxoisoindolin-5-yl)-3,9-diazaspiro[5.5]undecan-3-yl)propanoyl)piperidin-4-yl)ethynyl)-7-isopropyl-N-(4-(methoxymethyl)phenyl)pyrrolo[2,1-f][1,2,4]triazine-5-carboxamide]
8 | 79.1% | COCc1ccc(NC(=O)c2c(C#CC3CCN(C(=O)CN4CCC5(CC4)CCN(c4ccc6c(c4)CN(C4CCC(=O)NC4=O)C6=O)CC5)CC3)c(C(C)C)n3ncnc(N)c23)cc1 (stereo not shown) [Example 9, 4-amino-6-((1-(2-(9-(2-(2,6-dioxopiperidin-3-yl)-1-oxoisoindolin-5-yl)-3,9-diazaspiro[5.5]undecan-3-yl)acetyl)piperidin-4-yl)ethynyl)-7-isopropyl-N-(4-(methoxymethyl)phenyl)pyrrolo[2,1-f][1,2,4]triazine-5-carboxamide]
9 | 90.1% | COCc1ccc(NC(=O)c2c(C#CC3CCN(C(=O)CCCCN4CCC(c5ccc6c(c5)C(=O)N(C5CCC(=O)NC5=O)C6)CC4)CC3)c(C(C)C)n3ncnc(N)c23)cc1 (stereo not shown) [Example 7, 4-amino-6-((1-(5-(4-(2-(2,6-dioxopiperidin-3-yl)-3-oxoisoindolin-5-yl)piperidin-1-yl)pentanoyl)piperidin-4-yl)ethynyl)-7-isopropyl-N-(4-(methoxymethyl)phenyl)pyrrolo[2,1-f][1,2,4]triazine-5-carboxamide]
10 | 86.3% | COCc1ccc(NC(=O)c2c(C#CC3CCN(C(=O)CCCCN4CCC(c5ccc6c(c5)CN(C5CCC(=O)NC5=O)C6=O)CC4)CC3)c(C(C)C)n3ncnc(N)c23)cc1 (stereo not shown) [Example 8, 4-amino-6-((1-(5-(4-(2-(2,6-dioxopiperidin-3-yl)-1-oxoisoindolin-5-yl)piperidin-1-yl)pentanoyl)piperidin-4-yl)ethynyl)-7-isopropyl-N-(4-(methoxymethyl)phenyl)pyrrolo[2,1-f][1,2,4]triazine-5-carboxamide]
